According to patent US20220143222A1, “SUBCUTANEOUS AND INTRAMUSCULAR ADMINISTRATION OF PYRAZINE COMPOUNDS” (MediBeacon Inc., priority 2020, published 2022):

What was measured:
[1] = Storage of concentrated MB-102 salt solution at 4° C. (precipitation); type: physicochemical; conditions: sodium salt, 300 mg per mL water (w/v), 4° C. overnight
Experimental: MB-102 (0.300 g, 0.81 mmol), was placed in a vial (4.0 mL). Water was added (0.8 mL, D.I.) and the mixture sonicated for a brief period of time. To the mixture was added aqueous 6.25 N NaOH (2 equivalents, 1.62 mmol, 0.24 mL, added in portions; 0.020 mL×12 to effect solution) with stirring and brief periods of sonication. […] The final concentration was 300 mg (2R,2′R)-2,2′-((3,6-diaminopyrazine-2,5-dicarbonyl)bis(azanediyl))bis(3-hydroxypropanoic acid), MB-102 per mL water (w/v).
MB-102 (0.30 g, 0.81 mmol) was weighed into a 5 mL v-vial equipped with a Teflon-covered magnetic spin vane. Choline hydroxide in water (Aldrich, 0.43 g of 46 wt %, 1.62 mmol) was added portion-wise with stirring until a solution was obtained. The total weight of the solution was 0.73 g or 64.2 wt % MB-102 di-choline salt (MW: 578.6).

[2] = MB-102 pig plasma concentration after IV dosing; type: in vivo; conditions: pig 48019, IV, 3.2 mpk
Description: (§1) Juvenile Yorkshire pigs weighing approximately 25 kg were anesthetized, their body temperature stabilized, and an IV port surgically placed. A region approximately half-way along the line between the hip and knee joint was selected as the injection site and prepared by cleaning the skin and removing any exposed hair by shaving the selected area at least twice. Similarly, the site where two Quantum Leap fluorescent sensors (disclosed in U.S. Pat. No. 10,548,521) were to be positioned (chest) was prepared by washing and shaving. After the skin was dry the sensors were attached with commercially available skin adhesive and background skin auto-fluorescence measurements were recorded. After about 20 minutes of background fluorescence collection the subject animal was dosed either intravenously (animal 48019) or subcutaneously (animals 52771, 53701 09802, or 1539) or intramuscularly (09801) with PBS-1× formulated MB-102 at 3.2 mg/kg. Injection of the appropriate volume took place over about a minute. […] At this point glomerular elimination of MB-102 by the kidneys led to a decrease of fluorescence signal over time. Blood samples (1.5 mL) were taken immediately prior to the introduction of MB-102 (0 minutes) and at 15 minute intervals throughout the procedure. Blood was collected in BD vacutainer K2EDTA tubes, spun to plasma and stored at −80° C. until analyzed. Subsequently, the processed plasma samples were thawed, diluted with PBS-1× and analyzed by HPLC or UPLC and the concentration of MB-102 determined using standard analytical techniques. Further details for each animal are provided in the examples that follow.
Subject pig, 48019, the control animal, was prepared as in Example 6 and dosed IV using 8.2 mL of 11.8 mg/mL MB-102 in PBS-1× (bolus over about 2 min).

[3] = MB-102 pig plasma concentration after intramuscular dosing; type: in vivo; conditions: pig 09801, IM, 3.2 mpk
Description: as §1
Experimental animal Yorkshire pig, 09801, was subject to Intramuscular (IM) administration of MB-102 using substantially the same procedure as Example 8, but substituting a 2 mL syringe equipped with a single 13 mm×27 g needle. […] Blood sampling and processing was as described in Example 8 and the results (Table 1) are plotted in FIG. 6.

precipitate formation on storage [1]: no precipitate formation
concentration at 15 min ([2]; Yorkshire, plasma, 3.2 mg/kg, 15 min, read-out: MB-102 Pig Plasma Conc.): 13 µg/mL
concentration at 30 min ([2]; Yorkshire, plasma, 3.2 mg/kg, 30 min, read-out: MB-102 Pig Plasma Conc.): 9.2 µg/mL
concentration at 45 min ([2]; Yorkshire, plasma, 3.2 mg/kg, 45 min, read-out: MB-102 Pig Plasma Conc.): 7.83 µg/mL
concentration at 60 min ([2]; Yorkshire, plasma, 3.2 mg/kg, 60 min, read-out: MB-102 Pig Plasma Conc.): 5.88 µg/mL
concentration at 75 min ([2]; Yorkshire, plasma, 3.2 mg/kg, 75 min, read-out: MB-102 Pig Plasma Conc.): 5.43 µg/mL
concentration at 90 min ([2]; Yorkshire, plasma, 3.2 mg/kg, 90 min, read-out: MB-102 Pig Plasma Conc.): 4.68 µg/mL
concentration at 105 min ([2]; Yorkshire, plasma, 3.2 mg/kg, 105 min, read-out: MB-102 Pig Plasma Conc.): 4 µg/mL
concentration at 120 min ([2]; Yorkshire, plasma, 3.2 mg/kg, 120 min, read-out: MB-102 Pig Plasma Conc.): 3.35 µg/mL
concentration at 135 min ([2]; Yorkshire, plasma, 3.2 mg/kg, 135 min, read-out: MB-102 Pig Plasma Conc.): 3.25 µg/mL
concentration at 150 min ([2]; Yorkshire, plasma, 3.2 mg/kg, 150 min, read-out: MB-102 Pig Plasma Conc.): 2.7 µg/mL
concentration at 165 min ([2]; Yorkshire, plasma, 3.2 mg/kg, 165 min, read-out: MB-102 Pig Plasma Conc.): 2.41 µg/mL
concentration at 180 min ([2]; Yorkshire, plasma, 3.2 mg/kg, 180 min, read-out: MB-102 Pig Plasma Conc.): 2.2 µg/mL
concentration at 195 min ([2]; Yorkshire, plasma, 3.2 mg/kg, 195 min, read-out: MB-102 Pig Plasma Conc.): 2 µg/mL
concentration at 210 min ([2]; Yorkshire, plasma, 3.2 mg/kg, 210 min, read-out: MB-102 Pig Plasma Conc.): 1.91 µg/mL
concentration at 225 min ([2]; Yorkshire, plasma, 3.2 mg/kg, 225 min, read-out: MB-102 Pig Plasma Conc.): 1.69 µg/mL
concentration at 240 min ([2]; Yorkshire, plasma, 3.2 mg/kg, 240 min, read-out: MB-102 Pig Plasma Conc.): 1.51 µg/mL
concentration at 255 min ([2]; Yorkshire, plasma, 3.2 mg/kg, 255 min, read-out: MB-102 Pig Plasma Conc.): 1.4 µg/mL
concentration at 270 min ([2]; Yorkshire, plasma, 3.2 mg/kg, 270 min, read-out: MB-102 Pig Plasma Conc.): 1.32 µg/mL
concentration at 285 min ([2]; Yorkshire, plasma, 3.2 mg/kg, 285 min, read-out: MB-102 Pig Plasma Conc.): 1.14 µg/mL
concentration at 300 min ([2]; Yorkshire, plasma, 3.2 mg/kg, 300 min, read-out: MB-102 Pig Plasma Conc.): 1.11 µg/mL
concentration at 315 min ([2]; Yorkshire, plasma, 3.2 mg/kg, 315 min, read-out: MB-102 Pig Plasma Conc.): 1 µg/mL
concentration at 330 min ([2]; Yorkshire, plasma, 3.2 mg/kg, 330 min, read-out: MB-102 Pig Plasma Conc.): 0.917 µg/mL
concentration at 345 min ([2]; Yorkshire, plasma, 3.2 mg/kg, 345 min, read-out: MB-102 Pig Plasma Conc.): 0.859 µg/mL
concentration at 360 min ([2]; Yorkshire, plasma, 3.2 mg/kg, 360 min, read-out: MB-102 Pig Plasma Conc.): 0.819 µg/mL
SUM (plasma conc. over time) ([2]; 15-360 min): 1,188,637 ng/mL*min
concentration at 15 min ([3]; Yorkshire, plasma, intramuscular, 3.2 mg/kg, 15 min, read-out: MB-102 Pig Plasma Conc.): 10 µg/mL
concentration at 30 min ([3]; Yorkshire, plasma, intramuscular, 3.2 mg/kg, 30 min, read-out: MB-102 Pig Plasma Conc.): 8.13 µg/mL
concentration at 45 min ([3]; Yorkshire, plasma, intramuscular, 3.2 mg/kg, 45 min, read-out: MB-102 Pig Plasma Conc.): 6.24 µg/mL
concentration at 60 min ([3]; Yorkshire, plasma, intramuscular, 3.2 mg/kg, 60 min, read-out: MB-102 Pig Plasma Conc.): 5.03 µg/mL
concentration at 75 min ([3]; Yorkshire, plasma, intramuscular, 3.2 mg/kg, 75 min, read-out: MB-102 Pig Plasma Conc.): 3.93 µg/mL
concentration at 90 min ([3]; Yorkshire, plasma, intramuscular, 3.2 mg/kg, 90 min, read-out: MB-102 Pig Plasma Conc.): 3.37 µg/mL
concentration at 105 min ([3]; Yorkshire, plasma, intramuscular, 3.2 mg/kg, 105 min, read-out: MB-102 Pig Plasma Conc.): 2.73 µg/mL
concentration at 120 min ([3]; Yorkshire, plasma, intramuscular, 3.2 mg/kg, 120 min, read-out: MB-102 Pig Plasma Conc.): 2.13 µg/mL
concentration at 135 min ([3]; Yorkshire, plasma, intramuscular, 3.2 mg/kg, 135 min, read-out: MB-102 Pig Plasma Conc.): 1.8 µg/mL
concentration at 150 min ([3]; Yorkshire, plasma, intramuscular, 3.2 mg/kg, 150 min, read-out: MB-102 Pig Plasma Conc.): 1.51 µg/mL
concentration at 165 min ([3]; Yorkshire, plasma, intramuscular, 3.2 mg/kg, 165 min, read-out: MB-102 Pig Plasma Conc.): 1.34 µg/mL
concentration at 180 min ([3]; Yorkshire, plasma, intramuscular, 3.2 mg/kg, 180 min, read-out: MB-102 Pig Plasma Conc.): 1.11 µg/mL
concentration at 195 min ([3]; Yorkshire, plasma, intramuscular, 3.2 mg/kg, 195 min, read-out: MB-102 Pig Plasma Conc.): 0.946 µg/mL
concentration at 210 min ([3]; Yorkshire, plasma, intramuscular, 3.2 mg/kg, 210 min, read-out: MB-102 Pig Plasma Conc.): 0.841 µg/mL
concentration at 225 min ([3]; Yorkshire, plasma, intramuscular, 3.2 mg/kg, 225 min, read-out: MB-102 Pig Plasma Conc.): 0.686 µg/mL
concentration at 240 min ([3]; Yorkshire, plasma, intramuscular, 3.2 mg/kg, 240 min, read-out: MB-102 Pig Plasma Conc.): 0.578 µg/mL
concentration at 255 min ([3]; Yorkshire, plasma, intramuscular, 3.2 mg/kg, 255 min, read-out: MB-102 Pig Plasma Conc.): 0.52 µg/mL
concentration at 270 min ([3]; Yorkshire, plasma, intramuscular, 3.2 mg/kg, 270 min, read-out: MB-102 Pig Plasma Conc.): 0.434 µg/mL
concentration at 285 min ([3]; Yorkshire, plasma, intramuscular, 3.2 mg/kg, 285 min, read-out: MB-102 Pig Plasma Conc.): 0.373 µg/mL
concentration at 300 min ([3]; Yorkshire, plasma, intramuscular, 3.2 mg/kg, 300 min, read-out: MB-102 Pig Plasma Conc.): 0.333 µg/mL
concentration at 315 min ([3]; Yorkshire, plasma, intramuscular, 3.2 mg/kg, 315 min, read-out: MB-102 Pig Plasma Conc.): 0.298 µg/mL
concentration at 330 min ([3]; Yorkshire, plasma, intramuscular, 3.2 mg/kg, 330 min, read-out: MB-102 Pig Plasma Conc.): 0.261 µg/mL
concentration at 345 min ([3]; Yorkshire, plasma, intramuscular, 3.2 mg/kg, 345 min, read-out: MB-102 Pig Plasma Conc.): 0.222 µg/mL
concentration at 360 min ([3]; Yorkshire, plasma, intramuscular, 3.2 mg/kg, 360 min, read-out: MB-102 Pig Plasma Conc.): 0.203 µg/mL
SUM (plasma conc. over time) ([3]; 15-360 min): 794,162 ng/mL*min
Compound: Nc1nc(C(=O)N[C@H](CO)C(=O)O)c(N)nc1C(=O)N[C@H](CO)C(=O)O [MB-102, 3,6-diamino-2,5-bis{N-[(1R)-1-carboxy-2-hydroxyethyl]carbamoyl}pyrazine]
